Patent US12611439B2, “Ionic self-assembling peptides” (3-D MATRIX, LTD., priority 2018, dated 2026)
Peptide text beside a SMILES is read from it.

Columns and labels:
pig stomach submucosa = test: Submucosal injection in in vivo porcine model, stomach; settings: 2 mL of 0.1% (w/v) peptide, 0.9% NaCl, pH 7.5; pig stomach
Experimental: An in vivo porcine animal model was used to perform endoscopic mucosal and submucosal dissections as described in Uraoka et al. (2009) Drug Des. Devel. Ther. 2:131-8, incorporated herein by reference. Briefly, 2 mL of select peptide formulations were injected in between the […] in stomach of a pig and the submucosa was dissected using electro-knife. The gross appearance of the injection site and of dissected submucosal tissues at the injection sites were analyzed. […] Therefore, an in vivo porcine model system was used to assess the ability of these compositions to induce submucosal elevation upon injection into gastrointestinal submucosa, and the degree of tissue damage. In this model, submucosal injections with liquid compositions were performed and the morphology of the site of injection analyzed. Submucosal injection with aqueous solutions is used during the excision of lesions from the gastrointestinal tract in order to facilitate removal of the lesion by providing a safety cushion during resection (see, e.g., Kim et al. (2013) World J. Gastroenterol. 19(20): 3069-76, incorporated herein by reference). Here, aqueous pharmaceutical compositions comprising three exemplary self-assembling peptides formulated at pH 7.5: KLNL12 (SEQ ID NO:21), NLKL12 (SEQ ID NO:23) or KIQI13 (SEQ ID NO:29), were compared to an aqueous pharmaceutical composition comprising the previously described RADA16 self-assembling peptide (formulated at pH 2.5), a 0.4% solution of sodium hyaluronate (MucoUp®, Boston Scientific Japan K.K., Tokyo, Japan), and saline, pH 7.5.

[1] = Frequency sweep test (storage modulus) before and after exposure to DMEM; type: physicochemical; settings: 1% (w/v) peptide, pH 7.5
Experimental: Peptides formulated as aqueous solutions were placed between the plates of a rheometer (DHR-1, TA Instruments, 20 mm plates at a measuring geometry of 500 μm or 40 mm cone and plate at a measuring geometry of 2.0° of cone angle) and frequency stress sweep tests were performed at 0.1 Hz to 10 Hz of frequency with 0.1% of strain; measurements were performed after 2 minutes of relaxation time at 37° C. To do frequency sweep tests after exposure to Dulbecco's Modified Eagle Medium (DMEM), 10 mL of DMEM was added in chamber surrounding the plates, the sample in plates was submerged into the DMEM and the frequency test was performed as described after 20 minutes.
Rheological properties of aqueous pharmaceutical compositions comprising the exemplary self-assembling peptides KLNL12 (SEQ ID NO:21), KIQI13 (SEQ ID NO:29), or NLEL12 (SEQ ID NO:33) were determined by performing a frequency sweep test over storage modulus.
In some embodiments, peptides formulated as aqueous solutions, volume 700 μl, were placed between the plates of a rheometer (DHR-1, TA Instruments, 40 mm cone and plate at a measuring geometry of 2.0° of cone angle) and frequency sweep tests were performed at 0.1 Hz to 10 Hz of frequency with 0.1% of strain; measurements were performed after 2 minutes of relaxation time at 37° C. In some embodiments, frequency sweep tests were performed after exposure to Dulbecco's Modified Eagle Medium (DMEM), where 10 mL of DMEM was added in chamber surrounding the plates, the sample in plates was submerged into the DMEM and the frequency test was performed as described after 20 minutes.

[2] = Viscosity determination at increasing shear rate (shear thinning); type: physicochemical; settings: pH 7.5
Experimental: Peptides formulated as aqueous solutions (200 μL), were placed between the plates of a rheometer (DHR-1, TA Instruments, 20 mm plates at a measuring geometry of 500 μm) and the viscosity was measured from 0.001 s^−1 to 100 s^−1 shear rate. Thixotropic Measurements
In some clinical applications, administration of pharmaceutical compositions comprising self-assembling peptides requires exposing the compositions to pressure and/or shear thinning (e.g., during injection through a syringe needle or transferred via a pump-based system). […] To determine the shear thinning properties of pharmaceutical compositions of the self-assembling peptides formulated at pH 7.5, formulations comprising varying ionic strengths were prepared using different concentrations of sodium chloride, and viscosity measured at increasing shear rates. Thixotropic properties of formulations were also determined as well as the storage modulus over time at specific frequencies and pressure.
FIGS. 6-8 show the experimentally determined viscosity of aqueous pharmaceutical compositions comprising either 1% (w/v) KLNL12 (SEQ ID NO:21), 1% (w/v) IQIK13 (SEQ ID NO:28), or 1% (w/v) NLEL12 (SEQ ID NO:33), at pH 7.5. FIGS. 9 and 10 show the experimentally determined viscosity of aqueous pharmaceutical compositions comprising either 1% KLNL12 (SEQ ID NO:21) or 1% NLEL12 (SEQ ID NO:33), and 0.9% NaCl (to mimic physiological conditions) at pH 7.5. […] That is, decreased viscosity with increasing sheer rate. This property may advantageously facilitate application and use of the pharmaceutical compositions (e.g., due to decreased viscosity while pumping) while maintaining a desirable viscosity at a site of application (e.g., where no sheer force is being applied).

[3] = Net charge of self-assembling peptides in solution; type: physicochemical; settings: for net charge as a function of pH: around neutral pH; for Net charge at pH 7.5: in solution at pH 7.5
Source text: Several exemplary self-assembling peptides described herein (Table 5; SEQ ID NO:21-40) were designed to have a net charge, positive or negative, when formulated at pH 7.5. In contrast, previously-described self-assembling peptides have a net zero charge at the same pH.

[4] = Thixotropic measurements (storage modulus after shear); type: physicochemical; settings: 1% peptide, 0.9% NaCl, pH 7.5; 1000 1/s shear for 1 min
Experimental: Peptides formulated as aqueous solutions (200 μL), were placed between the plates of a rheometer (DHR-1, TA Instruments, 20 mm plates at a measuring geometry of 500 μm) and the sample was exposed to a fast plate rotation at 1000 s^−1 of shear rate for 1 minute and the storage modulus was measured at 1 rad s^−1 angular frequency for 10 minutes.
FIGS. 11 and 12 show the thixotropic properties of pharmaceutical compositions comprising 1% KLNL12 (SEQ ID NO:21) or 1% NLEL12 (SEQ ID NO:33), and 0.9% NaCl, at pH 7.5, after shear stress is removed. The aqueous pharmaceutical compositions were flowed at 1000 l/s of shear rate for 1 min and their storage modulus at 10 rad/s of frequency and at 0.1 Pa of stress was tested over time.

porcine esophagus mucosa = test: Submucosal injection in in vivo porcine esophagus; settings: pig, in vivo
Experimental: In another embodiment, mucosal aggregation visualized as white precipitate near the injection site was evaluated in an in vivo porcine esophagus.

SMILES | submucosal elevation after injection (pig stomach submucosa) | submucosal elevation over time compared with saline and MucoUp (pig stomach submucosa) | rheological properties (mechanical strength) before and after exposure to DMEM ([1]; 0.9% NaCl) | rheological properties (mechanical strength) before and after exposure to DMEM [1] | viscosity in response to increasing shear rate ([2]; 1% (w/v) peptide) | viscosity in response to increasing shear rate ([2]; 1% peptide, 0.9% NaCl) | net charge as a function of pH [3] | Net charge at pH 7.5 [3] | thixotropic properties (storage modulus over time after shear stress is removed) [4] | mucosal aggregation at injection sites (porcine esophagus mucosa) | Appearance of stomach mucosa (porcine esophagus mucosa; pH 7.5)
CC(=O)N[C@@H](CCCCN)C(=O)N[C@@H](CC(C)C)C(=O)N[C@@H](CC(N)=O)C(=O)N[C@@H](CC(C)C)C(=O)N[C@@H](CCCCN)C(=O)N[C@@H](CC(C)C)C(=O)N[C@@H](CC(N)=O)C(=O)N[C@@H](CC(C)C)C(=O)N[C@@H](CCCCN)C(=O)N[C@@H](CC(C)C)C(=O)N[C@@H](CC(N)=O)C(=O)N[C@@H](CC(C)C)C(N)=O [KLNL12, Ac-KLNLKLNLKLNL-NH2] (Ac-KLNLKLNLKLNL-NH2) | resulted in submucosal elevation | better submucosal elevation than saline and MucoUp® | increased after DMEM treatment | increased after DMEM treatment | exhibit sheer thinning | exhibit sheer thinning | about +3 | +3 | exhibited thixotropic properties | – | –
CC(=O)N[C@@H](CC(N)=O)C(=O)N[C@@H](CC(C)C)C(=O)N[C@@H](CCC(=O)O)C(=O)N[C@@H](CC(C)C)C(=O)N[C@@H](CC(N)=O)C(=O)N[C@@H](CC(C)C)C(=O)N[C@@H](CCC(=O)O)C(=O)N[C@@H](CC(C)C)C(=O)N[C@@H](CC(N)=O)C(=O)N[C@@H](CC(C)C)C(=O)N[C@@H](CCC(=O)O)C(=O)N[C@@H](CC(C)C)C(N)=O [NLEL12, Ac-NLELNLELNLEL-NH2] (Ac-NLELNLELNLEL-NH2) | – | – | increased after DMEM treatment | increased after DMEM treatment | exhibit sheer thinning | exhibit sheer thinning | about −3 | −3 | exhibited thixotropic properties | mucosal aggregation was not observed | clear/transparent
